Measured values taken from patent publication US7208140B2, “Trimeric macrocyclic substituted benzene derivatives” (Schering Aktiengesellschaft, priority 2003, dated 2007).
Values joined by “and” are separate entries in the source; they are usually repeats but may differ in a detail not shown here. Identical values can stand only once.

Experiments:
[1] = Distribution coefficient in 1-butanol and tris-HCl buffer; type: physicochemical; conditions: for Distribution Coefficient of Butanol/Water: 1-butanol and tris-HCl buffer at pH 7.6
Description: The distribution coefficient of Example 3F was determined in comparison to Gadovist, iopromide and iotrolan in 1-butanol and tris-HCl buffer at pH 7.6.

[2] = system: Epithelial cell line MDCK; assay: Neutral red test of cell viability in epithelial cells of the distal renal tubule; type: cell-based, canine; conditions: 50% reduction of cell viability after 24 hours
Description: To determine the IC-50, the neutral red test was used in epithelial cells of the distal renal tubule. In addition, this test is very helpful for predicting with high accuracy the LD-50 values of newly synthesized compounds.
Epithelial cell line MDCK of the renal distal renal tubule of a canine kidney (ECACC No. 85011435) was incubated from 10,000 cells/well in Alpha MEM Eagle (10% fetal bovine serum) at 37° C. and 5% CO2, 95% atmospheric humidity for 20 hours with various Examples 1B, 3F and 5F. Neutral red was used as an indicator for cell viability and for measuring lyosomal integrity and employed to determine those contrast medium concentrations in which a 50% reduction of cell viability (IC-50) occurred after 24 hours.
Four independent replicates were tested for each concentration of contrast medium. […] The latter is a reference compound in clinical practice and a contrast medium with proven excellent compatibility. The highest compatibility was found for Example 3F with 1170 μmol of I eq/ml.

Male Wistar rats = assay: CT studies (computer tomography) of rats after intravenous injection; type: in vivo, rat; conditions: i.v.
Description: By way of example, the suitability of the described compound class was examined in Example 1B with the aid of computer tomography (CT) of rats. For the CT studies, a Siemens Somatom CR was available. The 5-second image was prepared with a layer thickness of 2 mm and a tube voltage of 125 kV. Substance 1B was formulated as an aqueous solution at a concentration of 0.17 mol/l (corresponds to 145 mg (1+Gd)/ml.
Male Wistar rats (400 g of body weight) were scanned before (FIG. 1a) and after intravenous injection (FIG. 1) of 1B in a dose of 0.15 mmol/kg (corresponds to 127 mg of (I+Gd)/kg).
This early phase reflects the blood perfusion of the renal cortex.

Wistar rats = assay: MRT studies (angiography and organ visualization) of rats after intravenous injection; type: in vivo, rat; conditions: i.v.
Description: The same substance (IB) was examined with the aid of magnetic resonance tomography (MRT) as a contrast medium.
The MRT studies were performed on a 1.5 T device (Siemens Symphonie with 40 mT/m gradients). 400 g Wistar rats were examined with T1-weighted image sequences (angiography TR 2.54 ms, TE 1.12 ms und α=40° or organ visualization TR 54 ms, TE 4.8 ms and α=40°). The angiography (MRA, FIG. 3) was from 0–60 seconds p.i., and the organ visualization (FIGS. 4a and b) was prepared 15 minutes after the injection. Substance 1B was formulated as an aqueous solution at a concentration of 0.17 mol/l (corresponds to 0.5 mol of Gd/l) and was intravenously injected in a dose of 0.03 mmol of substance or 0.1 mmol of Gd/kg.

SMILES | Distribution Coefficient of Butanol/Water [1] | IC50 [2] | further results
O=C([O-])CN1CCN(CC(=O)[O-])CCN(CC(=O)NCCNC(=O)c2c(I)c(C(=O)NCCNC(=O)CN3CCN(CC(=O)[O-])CCN(CC(=O)[O-])CCN(CC(=O)[O-])CC3)c(I)c(C(=O)NCCNC(=O)CN3CCN(CC(=O)[O-])CCN(CC(=O)[O-])CCN(CC(=O)[O-])CC3)c2I)CCN(CC(=O)[O-])CC1.[Gd+3].[Gd+3].[Gd+3] [Example 3F, 2,4,6-Triiodotrimesic acid-N,N,N-tris-(3-aza-4-oxopentane-1,5-diyl-{10-[1,4,7-tris-(carboxylatomethyl)-1,4,7,10-tetrazacyclododecanyl, Gdcomplex]})amide] | 0.0002 and 0.0002 ± 0.0001 | 1170 μmol of I eq/ml | 
CN(C(=O)CC(=O)N(C)c1c(I)c(C(=O)NC(CO)C(O)CO)c(I)c(C(=O)NC(CO)C(O)CO)c1I)c1c(I)c(C(=O)NC(CO)C(O)CO)c(I)c(C(=O)NC(CO)C(O)CO)c1I (stereo not drawn) [Iotrolan] | 0.0065 ± 0.002 |  | 
O=C([O-])CN1CCN(CC(=O)[O-])CCN(CC(O)CNC(=O)c2c(I)c(C(=O)NCC(O)CN3CCN(CC(=O)[O-])CCN(CC(=O)[O-])CCN(CC(=O)[O-])CC3)c(I)c(C(=O)NCC(O)CN3CCN(CC(=O)[O-])CCN(CC(=O)[O-])CCN(CC(=O)[O-])CC3)c2I)CCN(CC(=O)[O-])CC1.[Gd+3].[Gd+3].[Gd+3] (stereo not drawn) [Example 5G, 1,3.5-Triiodotrimesic acid-N,N,N-tris-(2-hydroxypropane-1,3-diyl-{10-[1,4,7-tris-(carboxylatomethyl)-1,4,7,10-tetraazacyclododecanyl]}, Gdcomplex)amide] |  | 788 μmol of I eq/ml | 
CC(C(=O)NCC(=O)NCCNC(=O)c1c(I)c(C(=O)NCCNC(=O)CNC(=O)C(C)N2CCN(CC(=O)[O-])CCN(CC(=O)[O-])CCN(CC(=O)[O-])CC2)c(I)c(C(=O)NCCNC(=O)CNC(=O)C(C)N2CCN(CC(=O)[O-])CCN(CC(=O)[O-])CCN(CC(=O)[O-])CC2)c1I)N1CCN(CC(=O)[O-])CCN(CC(=O)[O-])CCN(CC(=O)[O-])CC1.[Gd+3].[Gd+3].[Gd+3] (stereo not drawn) [Example 1B, 1,3,5-Triiodotrimesic acid-N,N,N-tris-(3,6-diaza-4,7-dioxo-8-methyloctane-1,8-diyl-{10-[1,4,7-tris-(carboxylatomethyl)-1,4,7,10-tetraazacyclododecanyl, Gd-complex]})amide] |  | 930 μmol of I eq/ml | CT contrasting of vessels and renal cortex (early phase) (Male Wistar rats; 0.15 mmol/kg (127 mg of (I+Gd)/kg), 125 kV): very clear contrasting of the blood-conveying vessels (A) and the renal cortex (N); renal excretion (contrasting of renal pelvis in CT) (Male Wistar rats; 0.15 mmol/kg, 15 minutes later): quick renal excretion; MRA visualization of arteries and heart (Wistar rats; 0.03 mmol of substance or 0.1 mmol of Gd/kg, 1.5 T, 0-60 seconds p.i.): excellent ability to visualize the large arteries (aorta, femoral artery) as well as the heart; MRT whole-body image, organ contrasting (Wistar rats; 0.1 mmol of Gd/kg, 1.5 T, 15 minutes after the injection): clear contrasting of liver (L) as well as kidneys; renal elimination (ureter visualized in MRT) (Wistar rats; 0.1 mmol of Gd/kg, 15 minutes after the injection): quick renal elimination
COCC(=O)Nc1c(I)c(C(=O)NCC(O)CO)c(I)c(C(=O)N(C)CC(O)CO)c1I (stereo not drawn) [Iopromide] | 0.051 ± 0.003 |  | distribution coefficient of butanol/water relative to Example 3F ([1]; 0.051 vs. 0.0002): ≤ 255 ×; Distribution Coefficient of Butanol/Water ([1]; listed as lopromide): 0.051
O=C([O-])CN1CCN(CC(=O)[O-])CCN([C@H](CO)[C@H](O)CO)CCN(CC(=O)[O-])CC1.[Gd+3] (racemic) [Gadobutrol, reference compound] | 0.006 ± 0.0007 | 153 μmol of I eq/ml | 
